According to BindingDB's records for doi:10.1021/jm00119a018 (Southern Research Institute, 1988):

Target: Bifunctional purine biosynthesis protein ATIC (Homo sapiens, UniProt P31939)
Assay: ChEBML_28408
Description: Compound was tested for inhibition of AICAR formyltransferase

Sequence of Bifunctional purine biosynthesis protein ATIC (P31939 whole entry): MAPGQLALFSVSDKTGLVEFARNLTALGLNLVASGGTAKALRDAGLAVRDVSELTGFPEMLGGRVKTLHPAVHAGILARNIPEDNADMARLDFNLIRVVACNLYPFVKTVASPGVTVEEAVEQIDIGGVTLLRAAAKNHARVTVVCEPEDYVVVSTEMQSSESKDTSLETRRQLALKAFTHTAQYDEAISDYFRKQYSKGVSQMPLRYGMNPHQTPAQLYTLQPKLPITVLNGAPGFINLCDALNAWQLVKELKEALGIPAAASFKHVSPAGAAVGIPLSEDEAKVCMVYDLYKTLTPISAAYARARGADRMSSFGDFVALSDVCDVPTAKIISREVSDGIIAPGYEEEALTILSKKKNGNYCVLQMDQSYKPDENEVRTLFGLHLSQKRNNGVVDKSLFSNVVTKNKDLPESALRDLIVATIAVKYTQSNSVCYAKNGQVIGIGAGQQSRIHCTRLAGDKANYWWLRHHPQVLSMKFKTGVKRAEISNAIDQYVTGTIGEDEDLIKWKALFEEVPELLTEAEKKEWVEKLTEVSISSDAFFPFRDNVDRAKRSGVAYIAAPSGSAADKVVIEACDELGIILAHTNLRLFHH

Molecule `CC1c2c(nc(N)[nH]c2=O)NCC1CCc1ccc(C(=O)NC(CCC(=O)O)C(=O)O)cc1` (stereo not drawn) [(5RS, 6RS) 2-{4-[2-(2-Amino-5-methyl-4-oxo-3,4,5,6,7,8-hexahydro-pyrido[2,3-d]pyrimidin-6-yl)-ethyl]-benzoylamino}-pentanedioic acid] has an IC50 greater than 20 µM.
